Measurements published in patent US20250151724A1, “Liquid Soil Treatments Containing Choline” (Harrell's, LLC, priority 2023, published 2025).
Where two headings read alike, the source gives them in different places.

Test system: 'A4' creeping bentgrass
Settings: for Root Diameter / Root Length / Root Surface Area / Root Volume / Root Viability: end of trial; for Root Viability: TTC method
Source text: Mature ‘A4’ creeping bentgrass plugs (4″ diameter) were harvested from field plots and transplanted into 6-inch pots filled with a USGA (United States Golf Association) specification sand mix (fine sand with 10% calcined clay). The bentgrass was maintained at 15 mm and fertilized at 0.2 lb N/1,000 ft^2 at transplanting and then 0.15 lb N/1,000 ft^2 biweekly thereafter. After about 2 months of non-stressed growth with optimum temperature, water, fertilizer, and light, the pots were placed in a controlled environment growth chamber at 95° F. day (12 h)/77° F. night (12 h), light intensity at 400 μmol m^−2 s^−1, 12 h photoperiod, and 65% RH. Water was replaced 5 times weekly at 55% of measured evapotranspiration (ET). […] Four treatments were tested with 4 replications for each treatment. The choline chloride solution at the […] listed below was applied to the canopy at 2 gallons/1,000 ft^2 and the same amount of water was applied to the control (Treatment #1).
The treatments were as follows: • 1. Fertilized control (0.15 lb. Nitrogen (N) per 1,000 ft^2 every 14 days from 28-8-18 with UMAXX® fertilizer (Harrell's LLC, Lakeland, Florida) • 2. Choline at 0.125 oz./1,000 ft^2 biweekly+0.15 lb. N/1,000 ft^2 biweekly • 3. Choline at 0.25 oz./1,000 ft^2 biweekly+0.15 lb. N/1,000 ft^2 biweekly • 4. Choline at 0.5 oz./1,000 ft^2 biweekly+0.15 lb. N/1,000 ft^2 biweekly The rate and source of fertilization for treatments #2, 3, and 4 were the same as treatment #1 (fertilized control).
The stress period of the trial lasted for 8 weeks, and there was a total of 4 treatment applications. The following measurements/data were taken at day 0, 14, 28, 42, and 56: • a. Visual leaf color was rated on a 1-9 scale, with 1 indicating brown color and 9 indicating dark green color. • b. Photochemical efficiency was measured with chlorophyll fluorometer (OS-50II, Opti-Sciences, Inc., Hudson, NH). Three readings were collected from each pot and the average was used for statistical analysis. • c. Leaf chlorophyll content and carotenoids were extracted in acetone and measured with a spectrophotometer after incubation for 72 h. • d. Leaf proline content was determined based on the method of Bates et al. 1973 and as described by Wu et al. 2017. • e. Leaf antioxidant superoxide dismutase (SOD) activity was determined based on the method as described by Zhang et al. 2015. • f. Root viability, root samples were collected at the end of the trial and TTC method was used to measure root viability as described by Zhang et al., 2017. • g. Root growth characteristics (root length, root surface area, root diameter, root length density) were determined using WinRHIZO technology. • h. Root biomass of the whole pot was measured at day 56. For leaf chlorophyll, carotenoids, proline, and superoxide dismutase (SOD) activity, fresh samples were collected every two weeks and frozen with liquid and stored at −80° C. before lab analysis.

[1] = 0.125 oz/1000 ft^2 biweekly, day 0
[2] = 0.125 oz/1000 ft^2 biweekly, day 14
[3] = 0.125 oz/1000 ft^2 biweekly, day 28
[4] = 0.125 oz/1000 ft^2 biweekly, day 42
[5] = 0.125 oz/1000 ft^2 biweekly, day 56
[6] = 0.25 oz/1000 ft^2 biweekly, day 0
[7] = 0.25 oz/1000 ft^2 biweekly, day 14
[8] = 0.25 oz/1000 ft^2 biweekly, day 28
[9] = 0.25 oz/1000 ft^2 biweekly, day 42
[10] = 0.25 oz/1000 ft^2 biweekly, day 56
[11] = 0.5 oz/1000 ft^2 biweekly, day 0
[12] = 0.5 oz/1000 ft^2 biweekly, day 14
[13] = 0.5 oz/1000 ft^2 biweekly, day 28
[14] = 0.5 oz/1000 ft^2 biweekly, day 42
[15] = 0.5 oz/1000 ft^2 biweekly, day 56

Compound: C[N+](C)(C)CCO.[Cl-] [Choline, choline chloride]
- Carotenoids [1]: 1.05a mg/g Fresh Weight
- Chlorophyll [1]: 3.04a mg/g Fresh Weight
- Leaf color (1-9, 9 = dark green) [1]: 8.0a
- Photochemical Efficiency (Fv/F^m) [1]: 0.726a
- Proline content [1]: 64.1a μg/g FW
- SOD activity [1]: 909.7a Unit/g FW
- Carotenoids [2]: 0.88b mg/g Fresh Weight
- Chlorophyll [2]: 2.40c mg/g Fresh Weight
- Leaf color (1-9, 9 = dark green) [2]: 7.1ab
- Photochemical Efficiency (Fv/F^m) [2]: 0.659a
- Proline content [2]: 170.7a μg/g FW
- SOD activity [2]: 906.4a Unit/g FW
- Carotenoids [3]: 0.76c mg/g Fresh Weight
- Chlorophyll [3]: 2.16b mg/g Fresh Weight
- Leaf color (1-9, 9 = dark green) [3]: 6.0b
- Photochemical Efficiency (Fv/F^m) [3]: 0.668a
- Proline content [3]: 156.5a μg/g FW
- SOD activity [3]: 865.7ab Unit/g FW
- Carotenoids [4]: 0.69a mg/g Fresh Weight
- Chlorophyll [4]: 1.74ab mg/g Fresh Weight
- Leaf color (1-9, 9 = dark green) [4]: 6.3b
- Photochemical Efficiency (Fv/F^m) [4]: 0.611ab
- Proline content [4]: 156.1ab μg/g FW
- SOD activity [4]: 752.3bc Unit/g FW
- Carotenoids [5]: 0.67b mg/g Fresh Weight
- Chlorophyll [5]: 1.72ab mg/g Fresh Weight
- Leaf color (1-9, 9 = dark green) [5]: 6.0b
- Photochemical Efficiency (Fv/F^m) [5]: 0.596ab
- Proline content [5]: 139.7b μg/g FW
- Root Biomass [5]: 1.269a g/pot
- SOD activity [5]: 721.2bc Unit/g FW
- Root Diameter (0.125 oz/1000 ft^2 biweekly): 0.161b mm
- Root Length (0.125 oz/1000 ft^2 biweekly): 17.7ab cm/cm^3
- Root Surface Area (0.125 oz/1000 ft^2 biweekly): 0.90ab cm^2/cm^3
- Root Volume (0.125 oz/1000 ft^2 biweekly): 3.61ab cm^3/dm^3
- Root Viability (0.125 oz/1000 ft^2 biweekly): 0.78ab A490/g FW
- Carotenoids [6]: 1.03a mg/g Fresh Weight
- Chlorophyll [6]: 2.95a mg/g Fresh Weight
- Leaf color (1-9, 9 = dark green) [6]: 8.0a
- Photochemical Efficiency (Fv/F^m) [6]: 0.726a
- Proline content [6]: 63.1a μg/g FW
- SOD activity [6]: 870.8a Unit/g FW
- Carotenoids [7]: 1.02a mg/g Fresh Weight
- Chlorophyll [7]: 2.76a mg/g Fresh Weight
- Leaf color (1-9, 9 = dark green) [7]: 7.4a
- Photochemical Efficiency (Fv/F^m) [7]: 0.672a
- Proline content [7]: 177.4a μg/g FW
- SOD activity [7]: 930.7a Unit/g FW
- Carotenoids [8]: 0.94a mg/g Fresh Weight
- Chlorophyll [8]: 2.75a mg/g Fresh Weight
- Leaf color (1-9, 9 = dark green) [8]: 6.6a
- Photochemical Efficiency (Fv/F^m) [8]: 0.645a
- Proline content [8]: 162.3a μg/g FW
- SOD activity [8]: 885.1a Unit/g FW
- Carotenoids [9]: 0.84a mg/g Fresh Weight
- Chlorophyll [9]: 2.10ab mg/g Fresh Weight
- Leaf color (1-9, 9 = dark green) [9]: 6.7a
- Photochemical Efficiency (Fv/F^m) [9]: 0.648a
- Proline content [9]: 169.5a μg/g FW
- SOD activity [9]: 872.3a Unit/g FW
- Carotenoids [10]: 0.84a mg/g Fresh Weight
- Chlorophyll [10]: 1.99a mg/g Fresh Weight
- Leaf color (1-9, 9 = dark green) [10]: 6.6a
- Photochemical Efficiency (Fv/F^m) [10]: 0.615a
- Proline content [10]: 267.1a μg/g FW
- Root Biomass [10]: 1.273a g/pot
- SOD activity [10]: 866.5a Unit/g FW
- Root Diameter (0.25 oz/1000 ft^2 biweekly): 0.170ab mm
- Root Length (0.25 oz/1000 ft^2 biweekly): 18.4a cm/cm^3
- Root Surface Area (0.25 oz/1000 ft^2 biweekly): 0.98a cm^2/cm^3
- Root Volume (0.25 oz/1000 ft^2 biweekly): 4.18a cm^3/dm^3
- Root Viability (0.25 oz/1000 ft^2 biweekly): 1.28a A490/g FW
- Carotenoids [11]: 1.07a mg/g Fresh Weight
- Chlorophyll [11]: 3.07a mg/g Fresh Weight
- Leaf color (1-9, 9 = dark green) [11]: 8.0a
- Photochemical Efficiency (Fv/F^m) [11]: 0.718a
- Proline content [11]: 53.5a μg/g FW
- SOD activity [11]: 878.3a Unit/g FW
- Carotenoids [12]: 0.98ab mg/g Fresh Weight
- Chlorophyll [12]: 2.67ab mg/g Fresh Weight
- Leaf color (1-9, 9 = dark green) [12]: 7.4a
- Photochemical Efficiency (Fv/F^m) [12]: 0.690a
- Proline content [12]: 180.0a μg/g FW
- SOD activity [12]: 911.1a Unit/g FW
- Carotenoids [13]: 0.91ab mg/g Fresh Weight
- Chlorophyll [13]: 2.54ab mg/g Fresh Weight
- Leaf color (1-9, 9 = dark green) [13]: 6.8a
- Photochemical Efficiency (Fv/F^m) [13]: 0.661a
- Proline content [13]: 167.1a μg/g FW
- SOD activity [13]: 900.7a Unit/g FW
- Carotenoids [14]: 0.84a mg/g Fresh Weight
- Chlorophyll [14]: 2.18a mg/g Fresh Weight
- Leaf color (1-9, 9 = dark green) [14]: 6.9a
- Photochemical Efficiency (Fv/F^m) [14]: 0.659a
- Proline content [14]: 171.8a μg/g FW
- SOD activity [14]: 836.4ab Unit/g FW
- Carotenoids [15]: 0.83a mg/g Fresh Weight
- Chlorophyll [15]: 2.01a mg/g Fresh Weight
- Leaf color (1-9, 9 = dark green) [15]: 6.9a
- Photochemical Efficiency (Fv/F^m) [15]: 0.610a
- Proline content [15]: 278.0a μg/g FW
- Root Biomass [15]: 1.270a g/pot
- SOD activity [15]: 815.7ab Unit/g FW
- Root Diameter (0.5 oz/1000 ft^2 biweekly): 0.176a mm
- Root Length (0.5 oz/1000 ft^2 biweekly): 18.8a cm/cm^3
- Root Surface Area (0.5 oz/1000 ft^2 biweekly): 0.99a cm^2/cm^3
- Root Volume (0.5 oz/1000 ft^2 biweekly): 4.15a cm^3/dm^3
- Root Viability (0.5 oz/1000 ft^2 biweekly): 1.10a A490/g FW
